Source: ChEMBL document CHEMBL4765469, “2-((3,5-Dinitrobenzyl)thio)quinazolinones: Potent Antimycobacterial Agents Activated by Deazaflavin (F)-Dependent Nitroreductase (Ddn)” (J Med Chem, 2021)
≈ marks a conversion by molar mass, not a printed value. Calls of active or inactive are those of the source. The calls are words filed in the database; no cut-off is given here.

Legend:
[1] = system: Mycobacterium tuberculosis; assay: Antitubercular activity against Mycobacterium tuberculosis T3 with fgd mutant deficient in F420 reduction assessed as inhibition of all visible growth grown under 7H9/ glucose liquid culture incubated for 7 to 14 days; assay type: functional; conditions: time 7-14 day
[2] = system: Mycobacterium tuberculosis; assay: Antitubercular activity against Mycobacterium tuberculosis T2 expressing nitroreductase rv3547 A76E mutant assessed as inhibition of all visible growth grown under 7H9/ glucose liquid culture incubated for 7 to 14 days; assay type: functional; conditions: time 7-14 day
[3] = system: Mycobacterium tuberculosis; assay: Antitubercular activity against Mycobacterium tuberculosis 5A1 with fbiC mutant deficient in cofactor F420 biosynthesis assessed as inhibition of all visible growth grown under 7H9/ glucose liquid culture incubated for 7 to 14 days; assay type: functional; conditions: time 7-14 day
[4] = system: Mycobacterium tuberculosis; assay: Antitubercular activity against Mycobacterium tuberculosis resistant mutants generated by plating on 7H11/0ADC agar plates in presence of 3.75 to 15 uM 2-((3,5-Dinitrobenzyl)thio)quinazolin-4(3H)-one followed by sensitivity testing; assay type: functional, organism-based
[5] = Ratio of MIC for antitubercular activity against Mycobacterium tuberculosis resistant mutants generated by plating on 7H11/0ADC agar plates in presence of 3.75 to 15 uM 2-((3,5-Dinitrobenzyl)thio)quinazolin-4(3H)-one to MIC for antitubercular activity against wild type Mycobacterium tuberculosis H37Rv ATCC 27294; assay type: functional

SMILES	MIC>99 [1]	MIC>99 [2]	MIC>99 [3]	Activity [4]	Ratio [5]
O=c1[nH]c(SCc2cc([N+](=O)[O-])cc([N+](=O)[O-])c2)nc2cccnc12	37 µM (≈ 13.3 µg/mL)	50 µM (≈ 18 µg/mL)	37 µM (≈ 13.3 µg/mL)		
CN1CCN(c2ccc3nc(SCc4cc([N+](=O)[O-])cc([N+](=O)[O-])c4)[nH]c(=O)c3c2)CC1	25 µM (≈ 11.4 µg/mL)	37 µM (≈ 16.9 µg/mL)	37 µM (≈ 16.9 µg/mL)		
CO[C@H]1/C=C/O[C@@]2(C)Oc3c(C)c(O)c4c(O)c(c(/C=N/N5CCN(C)CC5)c(O)c4c3C2=O)NC(=O)/C(C)=C\C=C\[C@H](C)[C@H](O)[C@@H](C)[C@@H](O)[C@@H](C)[C@H](OC(C)=O)[C@@H]1C				Active	
O=[N+]([O-])c1cn2c(n1)OC[C@@H](OCc1ccc(OC(F)(F)F)cc1)C2				inactive	
C[C@]1(COc2ccc(N3CCC(Oc4ccc(OC(F)(F)F)cc4)CC3)cc2)Cn2cc([N+](=O)[O-])nc2O1				inactive	
O=c1[nH]c(SCc2cc([N+](=O)[O-])cc([N+](=O)[O-])c2)nc2ccc(Br)cc12	>50 µM	>50 µM	>50 µM		
O=c1[nH]c(SCc2cc([N+](=O)[O-])cc([N+](=O)[O-])c2)nc2ccccc12	37 µM (≈ 13.3 µg/mL)	37 µM (≈ 13.3 µg/mL)	>50 µM		> 40
O=c1[nH]c(SCc2cc([N+](=O)[O-])cc([N+](=O)[O-])c2)nc2ccc(F)cc12	>=50 uM	>=50 uM	>50 µM		
Cc1ccc2nc(SCc3cc([N+](=O)[O-])cc([N+](=O)[O-])c3)[nH]c(=O)c2c1	>50 µM	>50 µM	>50 µM		
NNC(=O)c1ccncc1				Active	
O=c1[nH]c(SCc2cc([N+](=O)[O-])cc([N+](=O)[O-])c2)nc2ccc(N3CCOCC3)cc12	>=50 uM	19 µM (≈ 8.43 µg/mL)	>=50 uM		
